Experimental findings from ChEMBL document CHEMBL1201862, “PubChem BioAssay data set” (2004) are described below.

Each structure is given as a SMILES string.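 These data come from cells grown in 96-well plates and exposed to compound for 48 hours at five concentrations. GI50 = concentration required for 50% inhibition of growth.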 Calls of active or inactive are those of the source. Cut-off read from the data, not from the text of the source: active = GI50 up to about 1.1 µM and inactive = higher.

Experiment in all cases: NCI tumour cell line growth inhibition, 48 h
In assay [1] the test system is MCF7.
Assay [2] has as its system SNB-78.
Assay [3] deals with RXF 631.
The test system of assay [4] is 786-0.
For assay [5], the system named is SR.
In assay [6] the test system is MDA-N.
Assay [7] concerns DU-145.
In assay [8] the test system is T47D.
For assay [9], the system named is BT-549.

As for `CC1=C2C3OC(=O)C(C)C3CCC2(C)C=C/C1=N\c1ccccc1` (centres undefined), the GI50 in [1] and in [2] was > 100 µM (inactive) throughout.

For `O=C(NCCCl)SCCO`, the GI50 in [3], in [4], in assay [5] and in [2] was > 100 µM (inactive) each time.

Take `CC1NC(=O)C(C)C(c2ccccc2)N(N=O)C1c1ccccc1` (centres undefined): the GI50 in [1] is 50 µM (inactive); in assay [2], > 100 µM (inactive).

For `COc1cc2c(ccc3c4cc(OC)c(OC)cc4c[n+](C)c23)cc1O` [FAGARONINE], the results for the GI50 in assay [1] and in assay [2] were 4.15 µM (inactive) and 26.1 µM (inactive), respectively.

As to `O=C1C(Cl)N(c2ccccc2[N+](=O)[O-])C1c1c[nH]c2ccccc12` (centres undefined), the GI50 in assay [5] was > 100 µM (inactive).

Take `CON(C)C(C#N)=C(C#N)C#N`: the GI50 in [6], in assay [7], in assay [8], in [5] and in assay [1] was > 10 µM (inactive) throughout.

On to `Nc1nc(CCC(=O)Nc2cccc(C(F)(F)F)c2)cc(-c2ccc3ccccc3c2)n1`, for which the GI50 in assay [4], in assay [5] and in assay [2] was > 100 µM (inactive) throughout.

As for `Cn1cc(-c2csc(-c3cn(C)c4ccccc34)n2)c2ccccc21`, the GI50 in [6] was 24.9 µM (inactive); in assay [7], 42.9 µM (inactive); in assay [4], 17.2 µM (inactive); in assay [8], 2.81 µM (inactive); in assay [1], 45.5 µM (inactive); in assay [9], 56.4 µM (inactive).

For the compound `ClCc1ccc2ccc3ccc(CCl)nc3c2n1`, the figures for the GI50 in assay [1] and in assay [2] were 0.955 µM (active) and 2.88 µM (inactive), respectively.

On to `CC[C@H](O)[C@H](C)C=C1SCCCS1`, for which the GI50 in assay [6], in [7], in [4], in [5], in [1] and in [9] was > 100 µM (inactive) each time.

As to `CN1C(=O)CCC1c1ccc2c(c1)oc(=O)n2C` (centres undefined), the GI50 in assay [4] and in [2] was > 100 µM (inactive) throughout.

In the case of `O=C(/C=C/c1ccc(OCc2ccccc2)cc1)NCc1ccc(C(=O)NCc2ccccc2)cc1`, the GI50 in assay [6], in assay [7], in assay [4], in assay [8], in [5] and in assay [1] was > 100 µM (inactive) in each case. For the same compound, the GI50 in assay [9] was > 100 µM (inactive).

As to `CC1=CC(C)C(C)N(CC2=NCCN2)c2ccccc21` (centres undefined), the GI50 in assay [6] is 52.5 µM (inactive); in [7] it was > 69.5 µM (inactive); in assay [4] it was 83.2 µM (inactive); in assay [8] it was > 57.8 µM (inactive); in assay [5] it was 26 µM (inactive); in [1], 53.7 µM (inactive). Further, the GI50 in [9] was > 100 µM (inactive).

For `CC(=O)c1c2c(cc3c1CC1(Cc4cc5c(cc4C1)C(=O)CCC5)C3)CCCC2` (centres undefined), the GI50 in [6] was 2.87 µM (inactive); in assay [7], 20.9 µM (inactive); in [4], 5.66 µM (inactive); in assay [8] it was 5.38 µM (inactive); in [5], 2.48 µM (inactive); in [1] it was 4.49 µM (inactive).

Regarding `CCN(CC)c1cccc2c1/C(=N/O)CCCC2`, the GI50 in [4], in assay [5] and in assay [2] was > 100 µM (inactive) throughout.

As to `Cn1c2ccc([N+](=O)[O-])cc2c(=O)n1Cc1ccccc1F`, the GI50 in assay [6] is 27.4 µM (inactive); in assay [7], 51.2 µM (inactive); in assay [4], 49.5 µM (inactive); in assay [8], 19.4 µM (inactive); in assay [5], 59.8 µM (inactive); in assay [1], > 100 µM (inactive). In addition, the GI50 in [9] is > 100 µM (inactive).

On to `C#CC(C)(C)OCCCCOc1cc(O)c2c(=O)c3ccccc3n(C)c2c1`, for which the figures for the GI50 in assay [4], in [5] and in assay [2] were > 100 µM (inactive), 89.3 µM (inactive) and > 100 µM (inactive), respectively.

In the case of `CN(C)C(=O)NCCN1CCCCCc2ccccc21`, the GI50 in assay [6], in assay [7], in [8], in assay [5] and in assay [1] was > 100 µM (inactive) throughout.

On to `CCOC(=O)c1cc(Br)c(-c2cc(C)no2)[nH]1`, for which the GI50 is 23.2 µM (inactive) in assay [6]; 20.5 µM (inactive) in assay [7]; 43.7 µM (inactive) in [4]; 28.1 µM (inactive) in assay [8]; 31.2 µM (inactive) in assay [9].

As to `CC(=O)NNc1nc(C)c(C(=O)NNC(=O)C(=O)Nc2ccc([N+](=O)[O-])cc2C#N)s1`, the GI50 is 67.3 µM (inactive) in assay [4], 67.1 µM (inactive) in assay [5] and > 100 µM (inactive) in assay [2].

`CC1CC/C(=C\c2ccc(N(C)C)cc2)C2=C1C(c1ccc(N(C)C)cc1)NC(=S)N2` (centres undefined): the GI50 in assay [6], in assay [7], in [4], in assay [8], in assay [1] and in [9] was > 100 µM (inactive) throughout.

With `O=C1C=CC(=O)c2c(Cl)ccc(O)c21`, the GI50 in assay [1] is 13.9 µM (inactive); in assay [2], 22 µM (inactive).

As for `CN(CCO)Cc1ncccc1O`, the GI50 in assay [7], in [8], in assay [5], in [1] and in [9] was > 100 µM (inactive) each time.

`COc1ccc(CCn2cncn2)cc1`: the GI50 in assay [3], in assay [5] and in [2] was > 100 µM (inactive) each time.

For `O=C1c2ccccc2N(O)C1(c1ccccc1)C1CCCC=C1N1CCOCC1` (centres undefined), the GI50 in assay [5] is 28.4 µM (inactive); in assay [2], > 100 µM (inactive).

Regarding `O=c1nc(NC(c2ccccc2)(c2ccccc2)c2ccccc2)ccn1CCCl`, the GI50 in [3] was 27.3 µM (inactive); in assay [4], 18.1 µM (inactive); in assay [5] it was 20.3 µM (inactive); in [2], 29.2 µM (inactive).

For the compound `O=[N+]([O-])c1ccc(N2N=C(c3ccc(NCc4nc5ccccc5[nH]4)cc3)CC2c2ccco2)cc1` (centres undefined), the results for the GI50 in assay [4] and in [5] were 44 µM (inactive) and 8.85 µM (inactive), respectively.

Consider `CC(=O)Nc1ccc(C(=O)NN2C(=O)C(Cl)/C2=C/c2ccco2)cc1` (centres undefined), for which the GI50 in [5] was > 100 µM (inactive).

In the case of `Cc1cc(C(=O)NCCN(C)C)c2nc3ccccc3cc2c1`, the GI50 in assay [1] was 1.55 µM (inactive); in assay [2], 4.45 µM (inactive).

Regarding `c1ccc(CNc2ncnc3nn[nH]c23)cc1`, the GI50 in [6], in [7], in assay [4], in [8] and in assay [1] was > 100 µM (inactive) in each case.

Consider `COC1(OC)CCC2C1C1CCC(OC)(OC)C21` (centres undefined), for which the GI50 in assay [3], in assay [4] and in assay [2] was > 50 µM (inactive) throughout.

`COc1cccc(OCC(=N/NC(=O)c2ccncc2)/N=C/c2ccncc2)c1`: the GI50 in assay [6], in assay [7], in assay [4], in assay [8], in assay [1] and in assay [9] was > 100 µM (inactive) in each case.

For `C=C1C(=O)OC2CC1CCC1(C)OC1CCC(C)=CCCC2(C)O` (centres undefined), the GI50 is 3.82 µM (inactive) in assay [1] and 7.74 µM (inactive) in assay [2].

Consider `OC[C@H]1C[C@@H]2Cc3ccccc3N2N1`, for which the GI50 in assay [6], in assay [7], in [4], in [8] and in assay [5] was > 100 µM (inactive) each time.
